By IC50 is commonly meant the concentration needed to halve the response being measured. A higher IC50 goes with lower potency.

Some results are limits rather than exact numbers.

Consider three molecules from patent US9238659B2, “Method of using binuclear gold (I) compounds for cancer treatment” (University of Hong Kong, priority 2012, dated 2016).

The nature of data set [1]: Reactivity towards physiological thiols (ESI-MS monitoring of reaction with GSH). The format is physicochemical. Conditions: GSH […]10^−5M or 5×10^−5M, about 45 min. The protocol:
FIGS. 6A-C show stability tests: (A) UV/vis absorption of 1 in PBS (containing 5% acetonitrile, v/v) at different time point; (B) Linear response of ESI-MS intensity of 1 versus concentration; (C) Kinetics analysis of reaction of 1 with GSH, auranofin was used as a reference compound. Unreacted compound percentage was calculated by combined MS intensity of each 10 scans at different time point then divided by pre-determined MS intensity of initial concentration. It was believed that high reactivity of the gold(I) anticancer drugs towards physiological thiols may fail the drugs targeting to the solid tumor tissue thus hamper the application for in vivo cancer treatment. As a result, high resolution ESI-MS was applied to monitor the reaction of 1 with thiol-containing GSH.

Data set [2] concerns cervical epithelioid carcinoma (HeLa). Briefly: MTT cytotoxicity assay, HeLa. Type of data set: cell-based, human. As to conditions: 72 h of incubation. On the technique in general: Tetrazolium dyes change colour on reduction, which living cells bring about.
Data set [3] relates to hepatocellular carcinoma (HepG2). Briefly: MTT cytotoxicity assay, HepG2. The format is cell-based, human. Conditions: 72 h of incubation.
Another data set has as its system breast carcinoma (MCF-7). Briefly: MTT cytotoxicity assay, MCF-7. The format is cell-based, human. As to conditions: 72 h of incubation.
Data set [4] concerns human nasopharyngeal carcinoma (HONE1). Briefly: MTT cytotoxicity assay, HONE1. The format is cell-based. Conditions: 72 h of incubation.
In data set [5] the test system is human nasopharyngeal carcinoma (SUNE1). Kind of data set: MTT cytotoxicity assay, SUNE1. Type of data set: cell-based. Conditions: 72 h of incubation.
Another data set concerns H1975. Briefly: MTT cytotoxicity assay, H1975. The format is cell-based, human. Conditions: 72 h of incubation.
The test system of a further data set is lung carcinoma (HCC827). Briefly: MTT cytotoxicity assay, HCC827. The format is cell-based, human. Conditions: 72 h of incubation.

In the case of `CC(=O)OC[C@H]1O[C@@H]([S-])[C@H](OC(C)=O)[C@@H](OC(C)=O)[C@@H]1OC(C)=O.CCP(CC)CC.[Au+]` [auranofin, reference compound], the “reaction towards GSH (reference compound)” value in data set [1] is “fast reaction towards GSH”.
For the molecule `CCN(CC)C1=[S+][Au-][P+](C2CCCCC2)(C2CCCCC2)C[P+](C2CCCCC2)(C2CCCCC2)[Au-][S]1.O=S(=O)(O)C(F)(F)F` [Compound 3, [Au2-dcpm-dedt] (OTf)], the 50% inhibitory concentration (IC50) in data set [2] was less than 390 nM; in data set [3], 540 ± 70 nM; in the data set on breast carcinoma (MCF-7), 410 ± 200 nM; in data set [4] it was 410 ± 70 nM; in data set [5], 670 ± 280 nM.
Consider `CCN(CC)C1=[S+][Au-][P+](c2ccccc2)(c2ccccc2)C[P+](c2ccccc2)(c2ccccc2)[Au-][S]1.O=S(=O)(O)C(F)(F)F` [Compound 4, [Au2-dppm-dedt] (OTf)], for which the IC50 in data set [2] was 630 nM; in data set [3], 950 ± 580 nM; with breast carcinoma (MCF-7), 500 ± 60 nM; in data set [4] it was 590 ± 40 nM; in data set [5], 1620 ± 440 nM; in the data set with H1975, less than 190 nM. This molecule also yielded an IC50 in the data set with lung carcinoma (HCC827) of 480 ± 60 nM.
